Measurements reported in the CheMixHub ionic liquid set.
± gives the uncertainty stated by the source.

Test: xn = mol fraction of the nth substance listed

CCCCCCCCCCCC[N+](C)(C)C.[Br-] + O
Details	electrical conductivity [S/m]	viscosity [mPa·s]
303.15 K, 100 kPa, x1 = 0.0001622	–	0.774 ± 0.026
303.15 K, 100 kPa, x1 = 0.0002162	–	0.775 ± 0.026
303.15 K, 100 kPa, x1 = 0.0002702	–	0.777 ± 0.026
303.15 K, 100 kPa, x1 = 0.0003242	–	0.78 ± 0.026
303.15 K, 100 kPa, x1 = 0.0003783	–	0.784 ± 0.026
303.15 K, 100 kPa, x1 = 0.0004323	–	0.786 ± 0.026
303.15 K, 100 kPa, x1 = 0.0004863	–	0.799 ± 0.026
303.15 K, 100 kPa, x1 = 0.0005403	–	0.803 ± 0.026
303.15 K, 101 kPa, x1 = 5.406e-05	–	0.772 ± 0.047
303.15 K, 101 kPa, x1 = 0.0001081	–	0.772 ± 0.047
303.15 K, 101 kPa, x1 = 0.0001622	–	0.774 ± 0.047
303.15 K, 101 kPa, x1 = 0.0002162	–	0.775 ± 0.047
303.15 K, 101 kPa, x1 = 0.0002702	–	0.778 ± 0.047
303.15 K, 101 kPa, x1 = 0.0003242	–	0.78 ± 0.047
303.15 K, 101 kPa, x1 = 0.0003783	–	0.785 ± 0.047
303.15 K, 101 kPa, x1 = 0.0004323	–	0.786 ± 0.048
303.15 K, 101 kPa, x1 = 0.0004863	–	0.799 ± 0.048
303.15 K, 101 kPa, x1 = 0.0005403	–	0.802 ± 0.048
308 K, 101 kPa, x1 = 0.0001513	0.078 ± 0.006	–
308 K, 101 kPa, x1 = 0.0001694	0.085 ± 0.007	–
308 K, 101 kPa, x1 = 0.0001892	0.094 ± 0.008	–
308 K, 101 kPa, x1 = 0.0002486	0.121 ± 0.01	–
308 K, 101 kPa, x1 = 0.0002774	0.135 ± 0.011	–
308 K, 101 kPa, x1 = 0.0003945	0.155 ± 0.012	–
308.15 K, 100 kPa, x1 = 5.406e-05	–	0.696 ± 0.026
308.15 K, 100 kPa, x1 = 0.0001081	–	0.697 ± 0.026
308.15 K, 100 kPa, x1 = 0.0001622	–	0.698 ± 0.026
308.15 K, 100 kPa, x1 = 0.0002162	–	0.699 ± 0.026
308.15 K, 100 kPa, x1 = 0.0002702	–	0.701 ± 0.026
308.15 K, 100 kPa, x1 = 0.0003242	–	0.705 ± 0.026
308.15 K, 100 kPa, x1 = 0.0003783	–	0.708 ± 0.026
308.15 K, 100 kPa, x1 = 0.0004323	–	0.711 ± 0.026
308.15 K, 100 kPa, x1 = 0.0004863	–	0.715 ± 0.026
308.15 K, 100 kPa, x1 = 0.0005403	–	0.716 ± 0.026
308.15 K, 101 kPa, x1 = 5.406e-05	–	0.696 ± 0.042
308.15 K, 101 kPa, x1 = 0.0001081	–	0.697 ± 0.042
308.15 K, 101 kPa, x1 = 0.0001622	–	0.698 ± 0.042
308.15 K, 101 kPa, x1 = 0.0002162	–	0.699 ± 0.042
308.15 K, 101 kPa, x1 = 0.0002702	–	0.701 ± 0.042
308.15 K, 101 kPa, x1 = 0.0003242	–	0.705 ± 0.043
308.15 K, 101 kPa, x1 = 0.0003783	–	0.709 ± 0.043
308.15 K, 101 kPa, x1 = 0.0004323	–	0.711 ± 0.043
308.15 K, 101 kPa, x1 = 0.0004863	–	0.714 ± 0.043
308.15 K, 101 kPa, x1 = 0.0005403	–	0.716 ± 0.043
313.15 K, 100 kPa, x1 = 5.406e-05	–	0.611 ± 0.026
313.15 K, 100 kPa, x1 = 0.0001081	–	0.612 ± 0.026
313.15 K, 100 kPa, x1 = 0.0001622	–	0.614 ± 0.026
313.15 K, 100 kPa, x1 = 0.0002162	–	0.617 ± 0.026
313.15 K, 100 kPa, x1 = 0.0002702	–	0.617 ± 0.026
313.15 K, 100 kPa, x1 = 0.0003242	–	0.62 ± 0.026
313.15 K, 100 kPa, x1 = 0.0003783	–	0.624 ± 0.026
313.15 K, 100 kPa, x1 = 0.0004323	–	0.626 ± 0.026
313.15 K, 100 kPa, x1 = 0.0004863	–	0.628 ± 0.026
313.15 K, 100 kPa, x1 = 0.0005403	–	0.63 ± 0.026
318 K, 101 kPa, x1 = 0.0001513	0.08 ± 0.006	–
318 K, 101 kPa, x1 = 0.0001748	0.09 ± 0.007	–
318 K, 101 kPa, x1 = 0.0001964	0.101 ± 0.008	–
318 K, 101 kPa, x1 = 0.0002252	0.113 ± 0.009	–
318 K, 101 kPa, x1 = 0.0002486	0.125 ± 0.01	–
318 K, 101 kPa, x1 = 0.000317	0.152 ± 0.012	–
318 K, 101 kPa, x1 = 0.0003369	0.157 ± 0.013	–
318 K, 101 kPa, x1 = 0.0003945	0.165 ± 0.013	–
318 K, 101 kPa, x1 = 0.0004305	0.169 ± 0.014	–
318.15 K, 100 kPa, x1 = 5.406e-05	–	0.582 ± 0.026
318.15 K, 100 kPa, x1 = 0.0001081	–	0.584 ± 0.026
318.15 K, 100 kPa, x1 = 0.0001622	–	0.585 ± 0.026
318.15 K, 100 kPa, x1 = 0.0002162	–	0.587 ± 0.026
318.15 K, 100 kPa, x1 = 0.0002702	–	0.588 ± 0.026
318.15 K, 100 kPa, x1 = 0.0003242	–	0.589 ± 0.026
318.15 K, 100 kPa, x1 = 0.0003783	–	0.59 ± 0.026
318.15 K, 100 kPa, x1 = 0.0004323	–	0.591 ± 0.026
318.15 K, 100 kPa, x1 = 0.0004863	–	0.592 ± 0.026
318.15 K, 100 kPa, x1 = 0.0005403	–	0.593 ± 0.026
